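Grown in 96-well plates, cells were treated for 48 hours with each compound at five concentrations. Insufficient inhibition: endpoint recorded as highest concentration tested. GI50 = concentration required for 50% inhibition of growth.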 The source made the active and inactive calls. Rule as the data show it: active = GI50 up to about 1.1 µM and inactive = higher.
How the values were obtained:
Experiment in all cases: inhibition of tumour cell growth, NCI panel, 48 h
786-0 = system: 786-0
A498 = system: A498
A549 = system: A549
CCRF-CEM = system: CCRF-CEM
DMS-273 = system: DMS-273
HCT-116 = system: HCT-116
HL-60 = system: HL-60
HOP-62 = system: HOP-62
HOP-92 = system: HOP-92
KM12 = system: KM12
LOX IMVI = system: LOX IMVI
M14 = system: M14
Malme-3M = system: Malme-3M
NCI-H226 = system: NCI-H226
NCI-H23 = system: NCI-H23
NCI-H522 = system: NCI-H522
SF-268 = system: SF-268
SK-OV-3 = system: SK-OV-3
SN12C = system: SN12C
T47D = system: T47D

Measured: GI50

O=C1[C@H]2ON(c3ccccc3)C(c3ccc(Cl)cc3Cl)[C@H]2C(=O)N1c1ccc(Cc2ccc(N3C(=O)[C@@H]4ON(c5ccccc5)C(c5ccc(Cl)cc5Cl)[C@@H]4C3=O)cc2)cc1 (stereo partly specified)
inactive: 786-0 > 100 µM | A498 > 100 µM | A549 > 100 µM | CCRF-CEM > 100 µM | DMS-273 > 100 µM | HCT-116 > 100 µM | HL-60 > 100 µM | HOP-62 > 100 µM | HOP-92 > 100 µM | KM12 > 100 µM | LOX IMVI > 100 µM | M14 19.6 µM | Malme-3M 96.8 µM | NCI-H226 > 100 µM | NCI-H23 > 100 µM | NCI-H522 > 100 µM | SF-268 > 100 µM | SK-OV-3 > 100 µM | SN12C > 100 µM

O=C(c1ccc(Cl)cc1)c1ccc(OCCCOc2ccc(C(=O)c3ccc(Cl)cc3)cc2Cl)c(Cl)c1
inactive: 786-0 > 100 µM | A549 > 100 µM | CCRF-CEM > 100 µM | DMS-273 > 100 µM | HCT-116 > 100 µM | HL-60 > 100 µM | HOP-62 > 100 µM | HOP-92 > 100 µM | KM12 > 100 µM | LOX IMVI > 100 µM | M14 > 100 µM | Malme-3M > 100 µM | NCI-H226 > 100 µM | NCI-H23 > 100 µM | NCI-H522 > 100 µM | SK-OV-3 > 100 µM | SN12C > 100 µM

COc1cc2c(cc1OC)[C@H]1C(COC(=O)Nc3ccccc3)CN1CC2 (stereo partly specified)
inactive: 786-0 > 100 µM | A498 70.6 µM | A549 > 100 µM | CCRF-CEM > 100 µM | DMS-273 > 100 µM | HCT-116 > 100 µM | HL-60 > 100 µM | HOP-62 > 100 µM | HOP-92 69.3 µM | KM12 > 100 µM | LOX IMVI 57.9 µM | M14 53.8 µM | Malme-3M > 100 µM | NCI-H23 > 100 µM | NCI-H522 > 100 µM | SF-268 > 100 µM | SK-OV-3 > 100 µM | SN12C > 100 µM

Cc1cc2oc(=O)[nH]c(=S)c2c(C)c1C
inactive: 786-0 > 100 µM | A498 > 100 µM | A549 > 100 µM | CCRF-CEM > 100 µM | DMS-273 > 100 µM | HCT-116 > 100 µM | HL-60 > 100 µM | HOP-62 > 100 µM | HOP-92 > 100 µM | KM12 > 100 µM | LOX IMVI > 100 µM | M14 > 100 µM | Malme-3M > 100 µM | NCI-H226 > 100 µM | NCI-H23 > 100 µM | NCI-H522 > 100 µM | SF-268 > 100 µM | SK-OV-3 > 100 µM | SN12C > 100 µM

C/C(=N\N=C(N)N)c1sc(-c2nc(C)c(/C(C)=N/N=C(N)N)s2)nc1C
inactive: 786-0 > 47.9 µM | A498 > 100 µM | A549 > 100 µM | CCRF-CEM > 60.7 µM | DMS-273 > 100 µM | HCT-116 > 100 µM | HL-60 24.4 µM | HOP-62 > 100 µM | HOP-92 > 100 µM | KM12 > 36.2 µM | LOX IMVI > 42.5 µM | M14 > 100 µM | Malme-3M > 100 µM | NCI-H226 > 100 µM | NCI-H23 > 100 µM | NCI-H522 36 µM | SF-268 > 100 µM | SK-OV-3 > 100 µM | SN12C > 100 µM

C=C(C)C1Cc2c(cc(OC)c3c(=O)c4ccccc4n(C)c23)O1 (stereo unspecified)
inactive: 786-0 > 100 µM | A498 > 100 µM | A549 > 100 µM | CCRF-CEM > 100 µM | DMS-273 91.6 µM | HCT-116 > 100 µM | HL-60 > 100 µM | HOP-62 > 100 µM | HOP-92 > 100 µM | KM12 > 100 µM | LOX IMVI 47.3 µM | M14 > 100 µM | Malme-3M > 100 µM | NCI-H226 > 100 µM | NCI-H23 > 100 µM | NCI-H522 18.3 µM | SF-268 > 100 µM | SK-OV-3 > 100 µM | SN12C > 100 µM

O=C(/C=C/c1ccc(O)cc1)c1ccc(O)cc1 [4,4'-DIHYDROXYCHALCONE]
inactive: 786-0 23.2 µM | A498 31 µM | A549 30.5 µM | CCRF-CEM 13.6 µM | DMS-273 16.5 µM | HCT-116 16.8 µM | HL-60 17 µM | HOP-62 21.8 µM | HOP-92 31.6 µM | KM12 11.9 µM | LOX IMVI 11.4 µM | M14 18.8 µM | Malme-3M 27.7 µM | NCI-H226 16.8 µM | NCI-H23 25.5 µM | NCI-H522 3.94 µM | SF-268 21.4 µM | SK-OV-3 42.6 µM | SN12C 31.2 µM | T47D 44.1 µM

CCCCCCCCCCSC(=O)NC
inactive: 786-0 35.2 µM | A498 37.5 µM | A549 37.8 µM | CCRF-CEM 18.9 µM | DMS-273 29.2 µM | HL-60 19 µM | HOP-92 18.6 µM | KM12 35.2 µM | LOX IMVI 32.9 µM | M14 22.4 µM | Malme-3M 36.3 µM | NCI-H23 30.5 µM | NCI-H522 21.3 µM | SF-268 31.8 µM | SK-OV-3 > 100 µM | SN12C 25.7 µM

CCCCCCCCCCCCCCCCOCC(CN(C)CCN(C)C)OCCCCCCCCCCCCCCCC (stereo unspecified)
inactive: 786-0 > 100 µM | A498 > 100 µM | A549 > 100 µM | CCRF-CEM > 100 µM | DMS-273 > 100 µM | HCT-116 > 100 µM | HL-60 > 100 µM | HOP-62 > 100 µM | HOP-92 > 100 µM | KM12 > 100 µM | LOX IMVI > 100 µM | M14 > 100 µM | Malme-3M > 100 µM | NCI-H226 > 100 µM | NCI-H23 > 100 µM | NCI-H522 > 100 µM | SF-268 > 100 µM | SK-OV-3 > 100 µM | SN12C > 100 µM

CCCCCCCCCCCCCCCCCC(=O)O[C@H](COC(=O)CCCCCCCCCCC)COC(=O)CCCCCCCCCCCCCCC
inactive: 786-0 > 100 µM | A498 > 100 µM | A549 > 100 µM | CCRF-CEM > 100 µM | DMS-273 > 100 µM | HCT-116 > 100 µM | HL-60 > 100 µM | HOP-62 > 100 µM | HOP-92 > 100 µM | LOX IMVI > 100 µM | M14 > 100 µM | Malme-3M > 100 µM | NCI-H226 > 100 µM | NCI-H23 > 100 µM | SF-268 > 100 µM | SK-OV-3 > 100 µM | SN12C > 100 µM

NS(=O)(=O)c1ccc(Nc2c3ccccc3nc3c(C(=O)N4CCN(CCO)CC4)cccc23)cc1
inactive: 786-0 > 100 µM | A498 > 100 µM | A549 > 100 µM | CCRF-CEM 95.3 µM | DMS-273 82.6 µM | HCT-116 > 100 µM | HL-60 29.2 µM | HOP-62 > 100 µM | HOP-92 > 100 µM | KM12 93.5 µM | LOX IMVI 92.7 µM | M14 > 100 µM | Malme-3M > 100 µM | NCI-H226 > 100 µM | NCI-H23 > 100 µM | NCI-H522 80.9 µM | SF-268 > 100 µM | SK-OV-3 > 100 µM | SN12C > 100 µM

Clc1ccc(-n2nnc(C3=NCCN3)c2-c2ccccc2)cc1
inactive: 786-0 > 100 µM | A498 > 100 µM | A549 > 100 µM | CCRF-CEM > 100 µM | DMS-273 > 100 µM | HCT-116 > 100 µM | HL-60 > 100 µM | HOP-62 > 100 µM | HOP-92 68.7 µM | KM12 > 100 µM | LOX IMVI > 100 µM | M14 > 100 µM | Malme-3M > 100 µM | NCI-H226 > 100 µM | NCI-H23 > 100 µM | NCI-H522 > 100 µM | SF-268 > 100 µM | SK-OV-3 > 100 µM | SN12C > 100 µM

Source: ChEMBL document CHEMBL1201862, “PubChem BioAssay data set” (2004)
